The subject of the assay is MCH receptors. Put plainly: MCH receptor activity class (method not given).
Where [1] appears, read: activity class 1-3: percent of control at 10^-7 M or IC50.
The mark [2] stands for this setting: activity class per percent of control at 10^-7 M or IC50.
Setting [3] is: class by percent of control at 10^-7 M or IC50.
The mark [4] stands for this setting: class by percent of control at 10^−7 M or IC50.

For the compound `Cc1cc(Br)cc(C)c1NC(=O)N[C@H]1CC[C@@H](Nc2nc3c(c(N(C)C)n2)CCCC3)CC1` [compound 1690, N-(4-bromo-2,6-dimethylphenyl)-N′-(cis-4-{[4-(dimethylamino)-5,6,7,8-tetrahydroquinazolin-2-yl]amino}cyclohexyl)urea], under setting [1], the class is listed as 1 (Class 1: The value of percent of control at 10^−7 M was less than 40% or the value of IC50 was less than 50 nM.).
Consider `COc1ccc2ccccc2c1CN[C@H]1CC[C@@H](Nc2cc(N(C)C)c3ccccc3n2)CC1` [compound 1091], for which, under setting [2], the class is listed as 3 (Class 3 The value of percent of control at 10^−7 M was more than 60% or the value of IC50 was more than 200 nM.).
With `CN(C)c1ccnc(N[C@H]2CC[C@@H](CNCc3ccc(OCc4ccc(Br)cc4)cc3)CC2)n1` [compound 1324], the class under setting [3] is listed as 2 (Class 2: The value of percent of control at 10^−7 M was from 40% to 60% or the value of IC′50 was from 50 nM to 200 nM.).
The same measure, in the same setting: the same measure for `CN(C)c1cc(N[C@H]2CC[C@@H](NC(=O)c3cc(-c4ccccc4)nc4ccccc34)CC2)nc2ccccc12` [compound 757, N-(cis-4-{[4-(dimethylamino)quinolin-2-yl]amino}cyclohexyl)-2-phenylquinoline-4-carboxamide]: 2 (Class 2: The value of percent of control at 10^−7 M was from 40% to 60% or the value of IC′50 was from 50 nM to 200 nM.); for `CCCCCC(=O)N[C@H]1CC[C@@H](Nc2nccc(N(C)C)n2)CC1` [compound 258]: 3 (Class 3 The value of percent of control at 10^−7 M was more than 60% or the value of IC50 was more than 200 nM.).
Take `Cc1cc(N(C)C)nc(N[C@H]2CC[C@@H](NCc3cccc(OC(F)(F)F)c3)CC2)n1` [compound 3005]: under setting [4], the class is 3 (Class 3 The value of percent of control at 10^−7 M was more than 60% or the value of IC50 was more than 200 nM.).
As for `CN(C)c1nc(N[C@H]2CC[C@@H](NC(=O)C(C)(C)Oc3ccc(Cl)cc3)CC2)nc2c1CCCC2` [compound 575], the class (class 1-3 by percent of control at 10^-7 M or IC50) is listed as 3 (Class 3 The value of percent of control at 10^−7 M was more than 60% or the value of IC50 was more than 200 nM.).
For `COc1ccc(OC)c(CNC[C@H]2CC[C@@H](Nc3cc(N(C)C)c4ccccc4n3)CC2)c1` [compound 1125], the class under setting [2] is listed as 3 (Class 3 The value of percent of control at 10^−7 M was more than 60% or the value of IC50 was more than 200 nM.).
For `CC(C(=O)N[C@H]1CC[C@@H](Nc2cc(N(C)C)c3ccccc3n2)CC1)c1ccc(C(=O)c2cccs2)cc1` (relative stereo) [compound 744], the class under setting [3] was 3 (Class 3 The value of percent of control at 10^−7 M was more than 60% or the value of IC50 was more than 200 nM.).
In the case of `CN(C)c1cc(N[C@H]2CC[C@@H](NC(=O)Nc3ccccc3I)CC2)nc2ccccc12` [compound 2108], the class under setting [3] was 3 (Class 3 The value of percent of control at 10^−7 M was more than 60% or the value of IC50 was more than 200 nM.).
Same read-out and setting: for `CN(C)c1cc(N[C@H]2CC[C@@H](CNC(=O)c3ccc(Br)s3)CC2)nc2ccccc12` [compound 788] the value was 3 (Class 3 The value of percent of control at 10^−7 M was more than 60% or the value of IC50 was more than 200 nM.).
The same measure, in the same setting: the same measure for `CN(C)c1ccnc(N[C@H]2CC[C@@H](NC(=O)[C@H](Cc3cn(Cc4ccccc4)cn3)NC(=O)OC(C)(C)C)CC2)n1` [compound 848]: 3 (Class 3 The value of percent of control at 10^−7 M was more than 60% or the value of IC50 was more than 200 nM.).
Still for that read-out and setting: the same measure for `CN(C)c1nc(N[C@H]2CC[C@@H](CNCCCCc3ccc([N+](=O)[O-])cc3)CC2)nc2c1CCCC2` [compound 1512]: 3 (Class 3 The value of percent of control at 10^−7 M was more than 60% or the value of IC50 was more than 200 nM.).
Consider `CN(C)c1nc(N[C@H]2CC[C@@H](CNC(=O)Cc3ccccc3Br)CC2)nc2c1CCCC2` [compound 642], for which the class under setting [3] is 3 (Class 3 The value of percent of control at 10^−7 M was more than 60% or the value of IC50 was more than 200 nM.).
Take `CN(C)c1nc(N[C@H]2CC[C@@H](CNC(=O)Nc3c(Cl)cccc3C(F)(F)F)CC2)nc2c1CCCC2` [compound 2465]: the class (MCH receptor activity class 1-3 (percent of control at 10^-7 M or IC50)) is recorded as 1 (Class 1: The value of percent of control at 10^−7 M was less than 40% or the value of IC50 was less than 50 nM.).
As for `CN(C)c1ccnc(N[C@H]2CC[C@@H](CNC(=O)c3ccc(F)c(Cl)c3F)CC2)n1` [compound 407], under setting [3], the class is 3 (Class 3 The value of percent of control at 10^−7 M was more than 60% or the value of IC50 was more than 200 nM.).
Still for that read-out and setting: for `C[C@@H](NC(=O)c1ccccc1C(=O)N[C@H]1CC[C@@H](Nc2nccc(N(C)C)n2)CC1)c1cccc2ccccc12` [compound 877, N-(cis-4-{[4-(dimethylamino)pyrimidin-2-yl]amino}cyclohexyl)-N′-[(1R)-1-(1-naphthyl)ethyl]phthalamide] the value was 2 (Class 2: The value of percent of control at 10^−7 M was from 40% to 60% or the value of IC′50 was from 50 nM to 200 nM.).
Turning to `CN(C)c1nc(N[C@H]2CC[C@@H](NC(=O)COc3c(Cl)cc(Cl)cc3Cl)CC2)nc2c1CCCC2` [compound 1023], under setting [2], the class is listed as 3 (Class 3 The value of percent of control at 10^−7 M was more than 60% or the value of IC50 was more than 200 nM.).
With `Cc1cnc(N[C@H]2CC[C@@H](NC(=O)Cc3ccc(Cl)cc3)CC2)nc1N(C)C` [compound 2872, 2-(4-chlorophenyl)-N-(cis-4-{[4-(dimethylamino)-5-methylpyrimidin-2-yl]amino}cyclohexyl)acetamide], the class under setting [4] is listed as 1 (Class 1: The value of percent of control at 10^−7 M was less than 40% or the value of IC50 was less than 50 nM.).
For `Cc1ccc(C(=O)c2ccccc2C(=O)N[C@H]2CC[C@@H](Nc3cc(N(C)C)c4ccccc4n3)CC2)cc1` [compound 759], the class under setting [3] was 3 (Class 3 The value of percent of control at 10^−7 M was more than 60% or the value of IC50 was more than 200 nM.).
Still for that read-out and setting: for `COc1cc(CN[C@H]2CC[C@@H](Nc3nccc(N(C)C)n3)CC2)cc(OC)c1O` [compound 1216] the value was 3 (Class 3 The value of percent of control at 10^−7 M was more than 60% or the value of IC50 was more than 200 nM.); for `CC(NC(=O)N[C@H]1CC[C@@H](Nc2nccc(N(C)C)n2)CC1)c1cccc2ccccc12` (relative stereo) [compound 2224, N-(cis-4-{[4-(dimethylamino)pyrimidin-2-yl]amino}cyclohexyl)-N′-[1-(1-naphthyl)ethyl]urea], 1 (Class 1: The value of percent of control at 10^−7 M was less than 40% or the value of IC50 was less than 50 nM.).
With `CN(C)c1cc(N[C@H]2CC[C@@H](CNC(=O)OCC(C)(C)C)CC2)nc2ccccc12` [compound 1560], the class under setting [1] is recorded as 3 (Class 3 The value of percent of control at 10^−7 M was more than 60% or the value of IC50 was more than 200 nM.).
`CSc1cccc(NC(=O)N[C@H]2CC[C@@H](Nc3nc4c(c(N(C)C)n3)CCCC4)CC2)c1` [compound 1865]: under setting [3], the class is 3 (Class 3 The value of percent of control at 10^−7 M was more than 60% or the value of IC50 was more than 200 nM.).
On the same count and under the same terms, the same measure for `CN(C)c1ccnc(N[C@H]2CC[C@@H](NC(=O)c3ccc(F)c(F)c3F)CC2)n1` [compound 342]: 3 (Class 3 The value of percent of control at 10^−7 M was more than 60% or the value of IC50 was more than 200 nM.).
On to `CCc1cccc(CC)c1NC(=O)N[C@H]1CC[C@@H](Nc2nc3c(c(N(C)C)n2)CCCC3)CC1` [compound 1672], for which the class under setting [1] is listed as 1 (Class 1: The value of percent of control at 10^−7 M was less than 40% or the value of IC50 was less than 50 nM.).
